Values joined by “and” are separate entries in the source; they are usually repeats but may differ in a detail not shown here. Equal entries are not always repeated.
Tested on: 885724-159-R-J1-PDC complex spheroid viability
Assay: Anticancer human tumor 885724-159-R-J1-PDC patient-derived pancreatic adenocarcinoma cell line growth inhibition [GQUAD]
Details: for viability, T/C: stronger effect = lower value
Source text: DNA G-quadruplex Stabilizer Agents in Combinations in Complex Spheroids
A high-throughput screen of multi-cell type tumor spheroids was designed to identify active combinations of DNA G-quadruplex stabilizer agents and targeted small molecules. Complex spheroids include a stromal component modeled by human endothelial cells (HUVEC) and fibroblasts modeled by human mesenchymal stem cells (MSCs). The concentration ranges selected for each drug and investigational agent were based upon clinically achievable concentrations if the clinical Cmax of the agent was known.
Compounds. The drugs and investigational agents: pidnarulex (CX-5461; NSC782164), APTO-253 (NSC789042), BRACO-19 (NSC847499), peposertib (NSC802822), ceralasertib (NSC780249), elimusertib (NSC800525), camonsertib (NSC841442), AZD-1390 (NSC803789), olaparib (NSC753686), talazoparib (NSC767125), ART-558 (NSC835418), sotorasib (NSC818433), MRTX-1133 (NSC836407), SN-38 (NSC673596), topotecan (NSC609699), etoposide (NSC141540), doxorubicin (NSC123127), gemcitabine (NSC613327), 5-fluorouracil (NSC19893), paclitaxel (NSC125973), vemurafenib (NSC761431), panobinostat (NSC761190), R-306465 (JNJ-16241199; NSC773264), adavosertib (NSC754352), TP-3654 (NSC805149), carboplatin (NSC241240), KSQ-4279 (NSC840948), and staurosporine (NSC755774) were obtained from the National Cancer Institute (NCI) Developmental Therapeutics Program Chemical Repository (34). The FDA-approved anticancer drug set is available from the NCI Developmental Therapeutics Program. […] The stock solutions were prepared in dimethyl sulfoxide (DMSO, Sigma-Aldrich, St. Louis, MO, cat. D2650) at 800-fold the tested concentration and stored at -70 degrees C prior to their use. All drugs and investigational agents were tested over a range starting from a high concentration at or near the clinical Cmax and decreasing in half-log increments. If the clinical Cmax for an agent had not been determined, the highest concentration tested was 10 microM.
2.3 Cell Culture. All cells were maintained in an incubator at 37 degrees C and 5% CO2 with 95% humidity. The PDC lines were cultured according to standard operating procedures established by the NCI PDMR. All PDCs were thawed and cultured in Matrigel-coated flasks prepared with a working solution of 1X Ham's F-12 nutrient mix, without supplementation (Invitrogen, cat. 11765054), 100 U/mL penicillin-streptomycin (Invitrogen, cat. 15140122), and 2.5% Matrigel (Corning Inc., cat. 354248) for the first three passages. The 857933-349-R-J2-PDC line was cultured in 6C/Colon 1B media, which includes advanced DMEM/F-12 (Thermo Fisher Scientific, cat. 12634028), 10 mM HEPES (Thermo Fisher Scientific, cat. 15630080), 1X GlutaMAX supplement (Thermo Fisher Scientific, cat. 35050061), 0.1 mg/mL primocin (InvivoGen, cat. ant-pm-2), 10% defined fetal bovine serum, heat inactivated (HyClone Laboratories Inc., cat. SH30070.03HI), 50% L-WRN conditioned media (ATCC, cat. CRL-3276), 1.25 mM N-Acetyl-L-cysteine (Sigma-Aldrich, cat. A9165), 10 mM nicotinamide (Sigma-Aldrich, cat. N0636), 1X B-27 supplement (Thermo Fisher Scientific, cat. 17504044), 1X N-2 supplement (Thermo Fisher Scientific, cat. 17502048), 10 microM Y-27632 dihydrochloride (Tocris Bioscience, cat. 1254), and 50 ng/mL human EGF recombinant protein (Thermo Fisher Scientific, cat. PHG0311). The 485176-168-R4-J1-PDC line was cultured in Panc media, which includes all 6C/Colon 1B media components plus 100 ng/mL human FGF-10 (Thermo Fisher Scientific, cat. 100-26), 500 nM SB-431542 (Selleckchem, cat. S1067), and gastrin (Tocris, cat. 3006).
[…]
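Further: spheroids exposed to agents for seven days before readout.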
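Wherever viability, T/C is given: percent of vehicle control viability where 100% = DMSO wells.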

SMILES: C=CC(=O)N1CCN(c2nc(=O)n(-c3c(C)ccnc3C(C)C)c3nc(-c4c(O)cccc4F)c(F)cc23)C(C)C1 (centres undefined) + Cc1cnc(CNC(=O)c2c(=O)c3ccc(N4CCCN(C)CC4)nc3n3c2sc2ccccc23)cn1
- IC50 (curve of first compound, second compound 0.0316 µM): > 10 µM
- IC50 (curve of first compound, second compound 0.1 µM): > 10 µM
- IC50 (curve of first compound, second compound 0.316 µM): > 10 µM
- IC50 (curve of first compound, second compound 1 µM): > 10 µM
- IC50 (curve of first compound, second compound 3.16 µM): > 10 µM
- IC50 (curve of first compound, second compound 10 µM): > 10 µM
- viability, T/C (second compound 0.0316 µM, first compound 0.0316 µM): 107%
- viability, T/C (second compound 0.0316 µM, first compound 0.1 µM): 114%
- viability, T/C (second compound 0.0316 µM, first compound 0.316 µM): 115%
- viability, T/C (second compound 0.0316 µM, first compound 1 µM): 107%
- viability, T/C (second compound 0.0316 µM, first compound 3.16 µM): 100%
- viability, T/C (second compound 0.0316 µM, first compound 10 µM): 91.5%
- viability, T/C (second compound 0.1 µM, first compound 0.0316 µM): 101%
- viability, T/C (second compound 0.1 µM, first compound 0.1 µM): 102%
- viability, T/C (second compound 0.1 µM, first compound 0.316 µM): 107%
- viability, T/C (second compound 0.1 µM, first compound 1 µM): 124%
- viability, T/C (second compound 0.1 µM, first compound 3.16 µM): 125%
- viability, T/C (second compound 0.1 µM, first compound 10 µM): 111%
- viability, T/C (second compound 0.316 µM, first compound 0.0316 µM): 103%
- viability, T/C (second compound 0.316 µM, first compound 0.1 µM): 106%
- viability, T/C (second compound 0.316 µM, first compound 0.316 µM): 110%
- viability, T/C (second compound 0.316 µM, first compound 1 µM): 89.2%
- viability, T/C (second compound 0.316 µM, first compound 3.16 µM): 124%
- viability, T/C (second compound 0.316 µM, first compound 10 µM): 96%
- viability, T/C (second compound 1 µM, first compound 0.0316 µM): 86.5%
- viability, T/C (second compound 1 µM, first compound 0.1 µM): 91%
- viability, T/C (second compound 1 µM, first compound 0.316 µM): 88.2%
- viability, T/C (second compound 1 µM, first compound 1 µM): 91.6%
- viability, T/C (second compound 1 µM, first compound 3.16 µM): 100%
- viability, T/C (second compound 1 µM, first compound 10 µM): 81%
- viability, T/C (second compound 3.16 µM, first compound 0.0316 µM): 74.5%
- viability, T/C (second compound 3.16 µM, first compound 0.1 µM): 84%
- viability, T/C (second compound 3.16 µM, first compound 0.316 µM): 89.3%
- viability, T/C (second compound 3.16 µM, first compound 1 µM): 81.4%
- viability, T/C (second compound 3.16 µM, first compound 3.16 µM): 89.4%
- viability, T/C (second compound 3.16 µM, first compound 10 µM): 76.8%
- viability, T/C (second compound 10 µM, first compound 0.0316 µM): 74.4%
- viability, T/C (second compound 10 µM, first compound 0.1 µM): 74%
- viability, T/C (second compound 10 µM, first compound 0.316 µM): 74.7%
- viability, T/C (second compound 10 µM, first compound 1 µM): 83.4%
- viability, T/C (second compound 10 µM, first compound 3.16 µM): 78%
- viability, T/C (second compound 10 µM, first compound 10 µM): 68.5%

SMILES: CC(C)n1c(=O)n(C)c2cnc3cc(F)c(-c4ccc(OCCCN5CCCCC5)nc4)cc3c21
- viability, T/C (compound 0.0316 µM): 102% (2×) and 106%
- viability, T/C (compound 0.1 µM): 100% and 103% and 96.6%
- viability, T/C (compound 0.316 µM): 83.3% and 94.1% and 102%
- viability, T/C (compound 1 µM): 107% and 108% and 86.7%
- viability, T/C (compound 3.16 µM): 95.5% and 86.1% and 102%
- viability, T/C (compound 10 µM): 87.7% and 68.2% and 77.4%
- IC50 (curve of compound): > 10 µM
